Assay results: patent US6503545B1 (Brandeis University, priority 1999, dated 2003)
Like-named read-outs stand apart in the source and are kept apart here.

Key:
[1] = per 1 mg, National Formulary; cited from earlier work
[2] = 150 mg natural and 150 mg synthetic daily in soft gelatin capsule, ten days; cited from earlier work
LDL = conditions: gel-capsule, ex vivo lag time; cited from earlier work
[3] = Loss of vitamin E during milk processing (pasteurization); format: physicochemical; conditions: heating, e.g. pasteurization
Description: In addition, as Applicant has described, normal processing of milk and other food products commonly includes heating, e.g., pasteurization.
Preparation of Vitamin E-Fortified Milks: Pasteurized non-fat (skim) milk containing 2,000 I.U. per quart vitamin A palmitate and 400 I.U. per quart vitamin D2 was prepared by H.P. Hood, Inc. (Chelsea Mass.). […] Fortified cream or oil was then blended with non-fortified skim milk to make three vitamin E-fortified milks containing fat (see below). […] Milk processing losses of vitamin E were measured and were compensated, by including an excess of vitamin E in the each milk formulation equal to the measured processing loss. Four milks were formulated as follows: […]
Preparation of Vitamin E-Fortified Milks: Preparation of milks, and the packaging and storage of milks by H.P. Hood, Inc. (Chelsea Mass.) were carried out as described for vitamin E-fortified milks in the first clinical study (see milk #3), except that the new milk (milk #21) was fortified with only 15 IU of all-rac-α-tocopherol acetate per serving. A portion of the milk batch was prepared without vitamins A and D (milk #20).

[4] = supplements greater than 100 IU per day, 6 years, elderly; cited from earlier work
[5] = ingestion of 1200 IU per day; cited from earlier work
[6] = Stability of vitamin E in fortified milks and orange juice during refrigerated storage; format: physicochemical; conditions: 2-3 weeks in refrigerated milk
From the text: The stability of all-rac E, oil was also monitored in regular 1% milkfat-containing milk (abbreviated “regular milk”). […] Although the starting levels of vitamin E were not identical in the beverages studied, all products were stored identically (see above) up to the time of the vitamin assay. Since the nominal shelf-life for milk is two weeks, and for refrigerated orange juice is four weeks, comparisons of vitamin E losses were made after three weeks storage.

[7] = in vivo; cited from earlier work
[8] = cited from earlier work; for Vit. E/Chol. ratio Incr.: above basal fasting ratio
[9] = 400 IU daily soft gel capsule, six years, 601 subjects; cited from earlier work
[10] = cited from earlier work

CC(=O)Oc1c(C)c(C)c2c(c1C)CC[C@@](C)(CCC[C@H](C)CCC[C@H](C)CCCC(C)C)O2 [RRR-α-tocopherol acetate]
specific activity (IU per milligram) [1]: 1.36 IU | competitive bioavailability in plasma versus all-rac-α-tocopherol acetate [2]: up to two-fold greater

Cc1c(C)c2c(c(C)c1O)CCC(C)(CCCC(C)CCCC(C)CCCC(C)C)O2 (racemic) [all-rac-α-tocopherol]
specific activity (IU per milligram) [1]: 1.10 IU | minimum dose which significantly decreases the susceptibility of LDL to oxidation (LDL): 400 IU/per day

vitamin E
loss of vitamin E associated with processing, generally [3]: 20-25% | loss of vitamin E associated with processing, typically [3]: 10-30% | reduction of CHD mortality [4]: 41-47% | reduction of all-cause mortality [4]: 27-34% | reduction of cancer mortality [4]: 22-23% | adverse effects [5]: no adverse effects have been observed | shelf-life loss of vitamin E [6]: about 15%

Cc1c(C)c2c(c(C)c1O)CC[C@@](C)(CCC[C@H](C)CCC[C@H](C)CCCC(C)C)O2 [α-tocopherol]
supplemented dose excreted in the feces [7]: 80-90%

CC(=O)Oc1c(C)c(C)c2c(c1C)CCC(C)(CCCC(C)CCCC(C)CCCC(C)C)O2 (racemic) [all-rac-α-tocopherol acetate]
specific activity (IU per milligram) [1]: 1.00 IU | Plasma Vit E Increase ([8]; capsules 25 IU/day, above basal fasting level): 19% | Vit. E/Chol. ratio Incr. ([8]; capsules 100 IU/day): 35% | Vit. E/Chol. ratio Incr. ([8]; capsules 200 IU/day): 65% | Vit. E/Chol. ratio Incr. ([8]; capsules 400 IU/day): 115% | average increase in plasma vitamin E [9]: 83%

Cc1c(C)c2c(c(C)c1O)CC[C@@](C)(CCC[C@H](C)CCC[C@H](C)CCCC(C)C)O2 [RRR-α-tocopherol]
specific activity (IU per milligram) [1]: 1.49 IU | plasma vitamin E level, elevated ([10]; 400-800 IU daily dose, basal 34.2 μmol/L): 58 µmol/L | average elevation in the plasma vitamin E level above the basal fasting level ([10]; 400-800 IU daily dose): 70% | reduction of the risk of non-fatal heart attacks ([10]; 400 IU once per day in capsules, patients with coronary atherosclerosis): 77%
